Among the data in patent publication US20230348467A1, “Heteroaryl Derivative, Preparation Method Therefor, And Use Thereof” (Zhejiang Hisun Pharmaceutical Co., Ltd., priority 2020, published 2023) are IC50 values, retold here.

Sequence of recombinant human full-length SHP2 (Q06124 whole entry): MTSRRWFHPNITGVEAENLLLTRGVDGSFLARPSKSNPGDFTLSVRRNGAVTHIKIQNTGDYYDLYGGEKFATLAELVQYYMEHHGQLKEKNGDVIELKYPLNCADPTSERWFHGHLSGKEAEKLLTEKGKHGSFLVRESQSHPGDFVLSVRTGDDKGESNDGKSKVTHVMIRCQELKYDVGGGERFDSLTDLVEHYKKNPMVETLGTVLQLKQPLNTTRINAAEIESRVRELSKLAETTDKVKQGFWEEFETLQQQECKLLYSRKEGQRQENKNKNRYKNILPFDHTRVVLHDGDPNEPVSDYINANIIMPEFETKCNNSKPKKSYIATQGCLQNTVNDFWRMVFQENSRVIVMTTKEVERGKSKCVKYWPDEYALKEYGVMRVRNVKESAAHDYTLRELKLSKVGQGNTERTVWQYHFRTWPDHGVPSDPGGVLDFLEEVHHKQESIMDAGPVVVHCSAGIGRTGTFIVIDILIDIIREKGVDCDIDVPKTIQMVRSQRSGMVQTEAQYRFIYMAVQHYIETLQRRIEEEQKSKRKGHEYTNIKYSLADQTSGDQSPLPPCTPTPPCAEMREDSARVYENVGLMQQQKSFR

The subject of one assay is NCI-H23 cells (containing KRAS G12C mutation). As to the kind of experiment: Inhibition of NCI-H23 cell proliferation (CellTiter-Glo). It is filed as cell-based. The following applies: Homo sapiens, 120 hours culture. How it is done:
The following method was used to determine the effects of the compounds of the present invention on NCI-H23 cell proliferation. NCI-H23 cells (containing KRAS G12C mutation) were purchased from Cell Resource Center of Shanghai Institutes for Biological Sciences, Chinese Academy of Sciences, and cultured in RPMI 1640 mediums containing 10% fetal bovine serum, 100 U penicillin, 100 μg/mL streptomycin and 1 mM Sodium Pyruvate. The activities of the cells were determined by CellTiter-Glo® Luminescent Cell Viability Assay kit (Promega, article number: G7573).
(§1) The experimental method was operated according to the steps in the kit instruction, and was briefly described as follows: test compounds were first dissolved in DMSO to prepare storage solutions of 10 mM, and then diluted in mediums, prepared as test samples. The final concentrations of the test compounds were 10,000 nM to 1.52 nM. The cells in logarithmic phase were inoculated in a 96-well cell culture plate with 1,000 cells per well, after cultured overnight in 5% CO2 incubator at 37° C., the test compounds were added to the incubator to continue the culture for 120 hours. After the culture, 50 μL of CellTiter-Glo detection solution was added to each well, shaken for 5 minutes, and then stood for 10 minutes. Then, a Luminescence mode was used to read the luminescence values of each well of the samples on a microplate reader. Compared with the numerical value of a control group (0.3% DMSO), the percentage inhibition rates of the compounds at each concentration were calculated, and the IC50 values of the compounds inhibiting cell proliferation were obtained by performing nonlinear regression analysis with logarithmic values of the compound concentration—inhibition rate by GraphPad Prism 5 software, which was shown in Table 2.
With `N[C@@H]1c2ccccc2CC12CCN(c1nc(C(=O)O)c3c(-c4cccc(Cl)c4Cl)n[nH]c3n1)CC2` [Example 9, (S)-6-(1-amino-1,3-dihydrospiro[indene-2,4′-piperidin]-1′-yl)-3-(2,3-dichlorophenyl)-1H-pyrazolo[3,4-d]pyrimidine-4-carboxylic acid], the IC50 is 13 nM.
Same read-out and setting: the same measure for `Cc1nc(N2CCC3(CC2)CO[C@@H](C)[C@H]3N)c(CO)nc1-c1cccc(Cl)c1Cl` [RMC-4550, reference compound]: 240 nM.

Another assay addresses recombinant human full-length SHP2 (Homo sapiens (Human), UniProt Q06124). As to the kind of experiment: Allosteric inhibition of full-length SHP2 enzyme (DiFMUP fluorescence). It is filed as biochemical. As to conditions: full-length SHP2 0.5 nM, activating peptide 0.5 uM, DiFMUP substrate. An excerpt: The following method was used to determine the inhibition degrees of the compounds of the present invention on the activity of recombinant human full-length SHP2 in vitro. SHP2 was allosterically activated by the binding of di-tyrosyl-phosphorylated peptide to a Src homologous 2(SH2) domain of SHP2. An activation step of the latter leads to the self-inhibitory interface release of SHP2, and then activates SHP2 protein tyrosine phosphatase (PTP), which might be used for substrate recognition and reaction catalysis.
The experimental process was briefly described as follows: Test compounds were first dissolved in DMSO to prepare storage solutions. […] Then, the compounds to be tested were added in a concentration range of 0.00004-10 uM and incubated at 25° C. for 60 minutes. Then DiFMUP (Thermo, D6567) was added in the reaction and incubated at 25° C. for 30 minutes. After incubation, readings were taken using a microplate reader (BMG) with excitation and emission wavelengths of 340 nm and 450 nm, respectively.
On to `CC1(N)CCN(c2nc(C(N)=O)c3c(-c4cccc(Cl)c4Cl)n[nH]c3n2)CC1` [Example 2, 6-(4-amino-4-methylpiperidin-1-yl)-3-(2,3-dichlorophenyl)-1H-pyrazolo[3,4-d]pyrimidine-4-carboxamide], for which the IC50 came to 29 nM.
`NC(=O)c1nc(N2[C@@H]3CC[C@H]2C[C@@H](N)C3)nc2[nH]nc(-c3cccc(Cl)c3Cl)c12` [Example 7, 6-((endo)-3-amino-8-azabicyclo[3.2.1]octan-8-yl)-3-(2,3-dichlorophenyl)-1H-pyrazolo[3,4-d]pyrimidine-4-carboxamide]: the IC50 came to 14 nM.
As for `NC(=O)c1nc(N2[C@@H]3CC[C@H]2C[C@H](N)C3)nc2[nH]nc(-c3cccc(Cl)c3Cl)c12` [Example 8, 6-((exo)-3-amino-8-azabicyclo[3.2.1]octan-8-yl)-3-(2,3-dichlorophenyl)-1H-pyrazolo[3,4-d]pyrimidine-4-carboxamide], the IC50 came to 5 nM.
As to `N[C@@H]1c2ccccc2CC12CCN(c1nc(C(=O)O)c3c(-c4cccc(Cl)c4Cl)n[nH]c3n1)CC2` [Example 9, (S)-6-(1-amino-1,3-dihydrospiro[indene-2,4′-piperidin]-1′-yl)-3-(2,3-dichlorophenyl)-1H-pyrazolo[3,4-d]pyrimidine-4-carboxylic acid], the IC50 was determined as 1 nM.
Regarding `NC(=O)c1nc(N2CCC(N)(c3c(F)cccc3F)CC2)nc2[nH]nc(-c3cccc(Cl)c3Cl)c12` [Example 11, 6-(4-amino-4-(2,6-difluorophenyl)piperidin-1-yl)-3-(2,3-dichlorophenyl)-1H-pyrazolo[3,4-d]pyrimidine-4-carboxamide], the IC50 amounted to 17 nM.
On to `CC1(N)CCN(c2nc(C(N)=O)c3c(-c4cccc(Br)c4Cl)n[nH]c3n2)CC1` [Example 12, 6-(4-amino-4-methylpiperidin-1-yl)-3-(3-bromo-2-chlorophenyl)-1H-pyrazolo[3,4-d]pyrimidine-4-carboxamide], for which the IC50 was found to be 8 nM.
With `NC(=O)c1nc(N2CCC(N)(CO)CC2)nc2[nH]nc(-c3cccc(Cl)c3Cl)c12` [Example 13, 6-(4-Amino-4-(hydroxymethyl)piperidin-1-yl)-3-(2,3-dichlorophenyl)-1H-pyrazolo[3,4-d]pyrimidine-4-carboxamide], the IC50 came to 10 nM.
As for `NC(=O)c1nc(N2CCC(N)CC2)nc2[nH]nc(-c3cccc(Cl)c3Cl)c12` [Example 15, 6-(4-Aminopiperidin-1-yl)-3-(2,3-dichlorophenyl)-1H-pyrazolo[3,4-d]pyrimidine-4-carboxamide], the IC50 stood at 24 nM.
Take `NC1(c2ccccc2Cl)CCN(c2nc(C(=O)O)c3c(-c4cccc(Cl)c4Cl)n[nH]c3n2)CC1` [Example 23, 6-(4-amino-4-(2-chlorophenyl)piperidin-1-yl)-3-(2,3-dichlorophenyl)-1H-pyrazolo[3,4-d]pyrimidine-4-carboxylic acid]: the IC50 worked out at 2 nM.
As to `NC1(c2ccc(Cl)cc2)CCN(c2nc(C(=O)O)c3c(-c4cccc(Cl)c4Cl)n[nH]c3n2)CC1` [Example 24, 6-(4-amino-4-(4-chlorophenyl)piperidin-1-yl)-3-(2,3-dichlorophenyl)-1H-pyrazolo[3,4-d]pyrimidine-4-carboxylic acid], the IC50 was 5 nM.
Turning to `NC1(c2cccc(Cl)c2)CCN(c2nc(C(=O)O)c3c(-c4cccc(Cl)c4Cl)n[nH]c3n2)CC1` [Example 25, 6-(4-amino-4-(3-chlorophenyl)piperidin-1-yl)-3-(2,3-dichlorophenyl)-1H-pyrazolo[3,4-d]pyrimidine-4-carboxylic acid], the IC50 came to 5 nM.
Take `Cc1cccc(-c2n[nH]c3nc(N4CCC(N)(c5ccccc5)CC4)nc(C(N)=O)c23)c1Cl` [Example 29, 6-(4-amino-4-phenylpiperidin-1-yl)-3-(2-chloro-3-methylphenyl)-1H-pyrazolo[3,4-d]pyrimidine-4-carboxamide]: the IC50 was 3 nM.
For `NC1(c2ccccc2)CCN(c2nc(-c3nnn[nH]3)c3c(-c4cccc(Cl)c4Cl)n[nH]c3n2)CC1` [Example 30, 1-(3-(2,3-dichlorophenyl)-4-(1H-tetrazol-5-yl)-1H-pyrazolo[3,4-d]pyrimidin-6-yl)-4-phenylpiperidin-4-amine], the IC50 amounted to 3 nM.
As to `COc1nccc(-c2n[nH]c3nc(N4CCC(N)(c5ccccc5F)CC4)nc(C(N)=O)c23)c1Cl` [Example 32, 6-(4-amino-4-(2-fluorophenyl)piperidin-1-yl)-3-(3-chloro-2-methoxypyridin-4-yl)-1H-pyrazolo[3,4-d]pyrimidine-4-carboxamide], the IC50 amounted to 10 nM.
The same measure, in the same setting: as for `NC(=O)c1nc(N2CCC(N)(c3ccccn3)CC2)nc2[nH]nc(-c3cccc(Cl)c3Cl)c12` [Example 38, 6-(4-amino-4-(pyridin-2-yl)piperidin-1-yl)-3-(2,3-dichlorophenyl)-1H-pyrazolo[3,4-d]pyrimidine-4-carboxamide], the figure is 27 nM; as for `COc1ccc(C2(N)CCN(c3nc(C(N)=O)c4c(-c5cccc(Cl)c5Cl)n[nH]c4n3)CC2)cc1` [Example 46, 6-(4-amino-4-(4-methoxyphenyl)piperidin-1-yl)-3-(2,3-dichlorophenyl)-1H-pyrazolo[3,4-d]pyrimidine-4-carboxamide], 3 nM; as for `NC(=O)c1nc(N2CCC(N)(c3ccccc3)CC2)nc2[nH]cc(-c3cccc(Cl)c3Cl)c12` [Example 53, 2-(4-amino-4-phenylpiperidin-1-yl)-5-(2,3-dichlorophenyl)-7H-pyrrolo[2,3-d]pyrimidine-4-carboxamide], 11 nM.

The next assay has as its system NCI-H358 cells (containing KRAS G12C mutation). As to the kind of experiment: Inhibition of NCI-H358 cell proliferation (CellTiter-Glo). It is filed as cell-based. The following applies: Homo sapiens, NCI-H358, 120 h, read-out: IC50(nM)/NCI-H358. As to the method: The following method was used to determine the effects of the compounds of the present invention on NCI-H358 cell proliferation. NCI-H358 cells (containing KRAS G12C mutation) were purchased from Cell Resource Center of Shanghai Institutes for Biological Sciences, Chinese Academy of Sciences, and cultured in RPMI 1640 mediums containing 10% fetal bovine serum, 100 U penicillin, 100 μg/mL streptomycin and 1 mM Sodium Pyruvate. The activities of the cells were determined by CellTiter-Glo® Luminescent Cell Viability Assay kit (Promega, article number: G7573).
as §1, with “of the” for “of a”, “Table 3.” for “Table 2.”
In general terms: In ATP-based viability assays light output follows the ATP content of the culture.
Regarding `Cc1nc(N2CCC3(CC2)CO[C@@H](C)[C@H]3N)c(CO)nc1-c1cccc(Cl)c1Cl` [RMC-4550, reference compound], the IC50 turned out to be 80 nM.
